Three compounds from patent US6384187B1, “Antiproliferative activity of microsclerodermins” (Harbor Branch Oceanographic Institution, Inc., priority 1999, dated 2002) can be followed below.

The test system of the assay is A549 human lung adenocarcinoma cells. As to the kind of experiment: Immunofluorescent detection of effects on the microtubule matrix (anti-alpha-tubulin). The format is cell-based. As to the method: Microsclerodermin compounds were evaluated as to their effects on the microtubule network of A549 human lung adenocarcinoma cells using anti-alpha-tubulin monoclonal antibodies. […] Tests were conducted to determine if the microsclerodermin compounds acted upon the cellular microtubule network in a similar fashion.
On day 1, 7.0×10^4 adherent A549 cells were cultured in TCM overnight at 37° C. in 5% CO2 on 22 mm2 coverslipsin 6-well microtiter plates. On day 2, the TCM was removed and replaced with various concentrations of the microsclerodermin compounds, or discodermolide,in TCM or TCM without drug (control) and incubated for 24 hours at 37° C. in 5% CO2. On day 3, the TCM was removed and the adhered cells were fixed in 3.7% formaldehyde solution in Dulbecco's phosphate-buffered saline (D-PBS) for 10 minutes at room temperature. The cells were then permeabilized in a 2% Triton X-100 solution in D-PBS, 2 ml per well, for 5 minutes at room temperature and washed twice in D-PBS prior to staining.
To each well containing cells attached to coverslips a 2 ml volume of mouse monoclonal anti-alpha-tubulin(Cat#T-5168, Sigma Immuno Chemicals) diluted 1:1000 in D-PBS was added and the cells incubated at room temperature for 45 minutes. The coverslips were rinsed twice with D-PBS. A 2 ml volume of goat-anti-mouse-IgG-FITC conjugate (Cat#T-5262, Sigma Immuno Chemicals) diluted at 1:1000 in D-PBS was added and the cells incubated at room temperature for 45 minutes. Coverslips were rinsed twice in D-PBS and incubated for 30 minutes at 37° C. with 1 ml/well of propidium iodide ([…]) and ribonuclease A ([…]) in D-PBS. The cover slips were rinsed three times with sterile distilled water, mounted on slides, and observed under the microscope using epifluorescence illumination for the presence of abnormal aster and microtubule bundle formation.

The mark [1] stands for this setting: treated cells, concentration not given, reference agents.

For `CC(=O)O[C@H]1C(=O)[C@@]2(C)[C@H]([C@H](OC(=O)c3ccccc3)[C@]3(O)C[C@H](OC(=O)[C@H](O)[C@@H](NC(=O)c4ccccc4)c4ccccc4)C(C)=C1C3(C)C)[C@]1(OC(C)=O)CO[C@@H]1C[C@@H]2O` [paclitaxel, reference compound], the “abnormal aster and microtubule bundle formation” value under setting [1] is on record as “abnormal formation of multiple centriolar-radiating microtubules with extensive clusters of associated microtubular “bundles””.
Regarding `C=C/C=C\[C@H](C)[C@H](OC(N)=O)[C@@H](C)[C@H](O)[C@@H](C)C/C(C)=C\[C@H](C)[C@@H](O)[C@@H](C)/C=C\[C@@H](O)C[C@@H]1OC(=O)[C@H](C)[C@@H](O)[C@H]1C` [discodermolide, reference compound], under setting [1], the “abnormal aster and microtubule bundle formation” value is given as “abnormal formation of multiple centriolar-radiating microtubules with extensive clusters of associated microtubular “bundles””.
Take microsclerodermin F: for the setting “A549 cells, 5 μg/ml, 24 hours”, the “abnormal aster and microtubule bundle formation” value was “nor was there any microtubule bundling or cells with multiple asters”; the “cell number compared with control cultures” value is “fewer cells than in control cultures”; the cells undergoing mitosis result was “No cells in the culture were found to be undergoing mitosis”. Moreover, under “A549 cells, 5 μg/ml, 24 hours, seen in some cells”, the “alpha-tubulin antibody staining of the microtubule matrix” value is given as “completely disassembled structure with a near uniform distribution throughout the cytoplasm”.
